Patent US11286278B2, “DPEP-1 binding agents and methods of use” (Arch Biopartners, Inc., priority 2018, dated 2022)
Ends that are not written are not given here.

Assays:
human DPEP3 = target: T1, human DPEP3 (Homo sapiens, UniProt Q9H4B8); experiment: Immunofluorescence binding to Cos-1 cells transfected with human DPEP3; conditions: Alexa-488 conjugate
T1 construct: expressed in transfected cells; host or cells: Cos-1
T1 sequence (Q9H4B8 36-463): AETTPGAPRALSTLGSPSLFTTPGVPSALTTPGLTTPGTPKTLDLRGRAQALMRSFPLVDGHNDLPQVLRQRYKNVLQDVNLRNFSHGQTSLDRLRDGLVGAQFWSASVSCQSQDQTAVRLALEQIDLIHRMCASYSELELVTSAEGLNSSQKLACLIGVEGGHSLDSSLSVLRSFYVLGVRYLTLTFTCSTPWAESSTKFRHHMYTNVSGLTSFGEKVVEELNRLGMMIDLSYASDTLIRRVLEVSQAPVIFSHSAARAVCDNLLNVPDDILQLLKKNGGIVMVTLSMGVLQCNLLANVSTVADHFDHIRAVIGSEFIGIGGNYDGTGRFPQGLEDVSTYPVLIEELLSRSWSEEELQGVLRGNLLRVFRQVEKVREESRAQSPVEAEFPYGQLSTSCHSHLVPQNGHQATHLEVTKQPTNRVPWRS
Method: (§1) Cos-1 cells were transiently transfected with either 3 μg of human DPEP-1, DPEP2, or DPEP3 gene using Lipofectamine 2000 (Invitrogen) reagent in OptiMEM medium. 24 hours after transfection, DPEP-1, DPEP2, or DPEP3 expressing cells were re-seeded on collagen coated (neutralized) wells in 24 well plates and allowed to grow for 24 hours at 37° C. […] Cells were blocked with FBS/NBSA/Tween in PBS for 30 minutes on ice. Cells were then washed with PBS and incubated with LSALT or GFE-1, conjugated with Alexa-488 (green). After incubation, cells were washed with PBS and stained with DAPI for 5 minutes on ice. Cells were then washed with PBS and fixed using 4% paraformaldehyde and immunofluorescence microscopy was performed to assess binding. Representative photomicrographs are shown for each experimental condition (n=3) in FIG. 6A. Proteins from DPEP-1, DPEP2 and DPEP3 transfected cells were isolated after 48 hours using octyl-glucoside/RIPA lysis buffer and western blot analysis was performed to assess DPEP-1, DPEP2 and DPEP3 protein expression using specific antibodies; DPEP-1 antibody (Sigma), DPEP2 (Abcam) and DPEP3 (Santacruz). Blots were stripped and reprobed with an anti-β-actin.

[1] = target: T2, renal rat membrane dipeptidase (DPEP-1) (Rattus norvegicus, UniProt P31430); experiment: Binding of Alexa-488 conjugated peptides to Cos-7 cells transfected with renal rat membrane dipeptidase; conditions: Alexa-488 conjugate, on ice 30 minutes
T2 construct: expressed in transfected cells; host or cells: Cos-7
Method: Cells were incubated with LSALT or GFE-1 conjugated with Alexa-488 (Green), or control peptide conjugated with Alexa-488 (Green) on ice for 30 minutes. Cells were washed and fixed using 4% paraformaldehyde and immunofluorescence microscopy was performed to assess binding. Shown are representative photomicrographs of each experimental condition (n=2).
48 hours after transfection, cells were incubated with LSALT conjugated to Alexa-488 (green) on ice for 30 minutes. Cells were washed and flow cytometry was performed to assess binding. Shown are single parameter histographs for each experimental condition (n=2).

[2] = target: T3, human membrane dipeptidase (DPEP-1) (Homo sapiens, UniProt P16444); experiment: Membrane dipeptidase enzyme activity assay (Gly-D-Phe, fluorometric); type: biochemical; conditions: lysates of transfected Cos1 cells, substrate Gly-D-Phe
T3 construct: expressed in transfected cells; host or cells: Cos-1
T3 sequence (P16444 17-385): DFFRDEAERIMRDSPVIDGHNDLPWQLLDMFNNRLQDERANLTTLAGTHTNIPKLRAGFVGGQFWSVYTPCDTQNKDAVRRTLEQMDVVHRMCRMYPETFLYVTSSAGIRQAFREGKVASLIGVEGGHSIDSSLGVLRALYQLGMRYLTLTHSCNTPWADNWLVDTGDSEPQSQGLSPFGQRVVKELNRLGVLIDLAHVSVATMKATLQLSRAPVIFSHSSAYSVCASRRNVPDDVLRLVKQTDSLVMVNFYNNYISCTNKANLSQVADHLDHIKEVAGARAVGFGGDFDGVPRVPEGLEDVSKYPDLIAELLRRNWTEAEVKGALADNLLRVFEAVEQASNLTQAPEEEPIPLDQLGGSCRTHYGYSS
Method: 24 hours after transfection, DPEP-1 expressing cells weer reseeded on 24 well collagen coated (neutralized) plates and allowed to grow for 24 hours at 37° C. […] Cells were blocked with FBS/NBSA/Tween in PBS for 30 minutes on ice. […] After incubation, cells were washed with PBS and stained with DAPI for 4 minutes on ice. Cells were again washed with PBS, fixed using 4% paraformaldehyde and immunofluoresence microscopy was performed to assess binding. Proteins from human DPEP-1 transfected cells were isolated after 48 hours using octyl-glucoside/RIPA in the absence of protease inhibitors. […] Proteins from transfected cells were isolated after 48 hours using octyl-glucoside/RIPA lysis buffer and western blot analysis was performed to assess DPEP-1 expression using DPEP-1 antibody (Sigma).
The fluorescence signal generated from the conversion of D-Phe to […] in the presence of D-aminoacidoxidase and peroxidase was measured using a fluorescence plate reader.
Proteins from DPEP-1 transfected cells were isolated after 48 hours using octyl-glucoside/RIPA lysis buffer and western blot analysis was performed to assess DPEP-1 expression using a DPEP-1 specific antibody (Proteintech) (FIG. 24B).

[3] = system: neutrophil adhesion in the hepatic sinusoids; experiment: Neutrophil adhesion in hepatic sinusoids after LPS, intravital microscopy; type: in vivo, mouse; conditions: LysM gfp mice, LPS 0.5 mg/kg i.p., peptide 1 mM i.v.
Method: Six to ten week old LysM^(gfp) mice were injected with 1 mM dose of LSALT or 1KGAL (control) (intravenous) 5 minutes after the injection of 0.5 mg/kg of lipopolysaccharide (intraperitoneal). After 3 hours, animals were injected with ketamine and xylazine to provide general anesthesia. Fluorescently conjugated F4/80 and PECAM-1 antibodies were then administered via jugular vein cannulation and intravital spinning disk confocal microscopy was performed. The livers were imaged for an hour and the number of neutrophils were counted at different time points. Neutrophils which were stationary for ≥30 seconds in the liver sinusoids were counted as adherent cells. Data are representative of three independent experiments. An unpaired 2-tailed student's t-test was performed comparing LSALT, […] control treated group against the LPS treated group (*p<0.05).

human DPEP2 = target: T4, human DPEP2 (Homo sapiens, UniProt Q9H4A9); experiment: Immunofluorescence binding to Cos-1 cells transfected with human DPEP2; conditions: Alexa-488 conjugate
T4 construct: expressed in transfected cells; host or cells: Cos-1
Method: as §1

T2 sequence (P31430 17-384): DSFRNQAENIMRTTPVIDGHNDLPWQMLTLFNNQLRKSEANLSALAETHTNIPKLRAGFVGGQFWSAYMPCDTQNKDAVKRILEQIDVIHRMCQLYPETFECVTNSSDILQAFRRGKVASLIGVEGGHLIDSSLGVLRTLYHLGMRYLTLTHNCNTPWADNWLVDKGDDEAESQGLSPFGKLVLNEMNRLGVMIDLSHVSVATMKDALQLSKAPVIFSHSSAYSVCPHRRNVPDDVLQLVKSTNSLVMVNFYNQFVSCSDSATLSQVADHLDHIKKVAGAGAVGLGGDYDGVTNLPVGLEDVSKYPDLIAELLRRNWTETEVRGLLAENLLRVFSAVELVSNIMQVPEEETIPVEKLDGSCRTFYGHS
T4 sequence (Q9H4A9 33-463): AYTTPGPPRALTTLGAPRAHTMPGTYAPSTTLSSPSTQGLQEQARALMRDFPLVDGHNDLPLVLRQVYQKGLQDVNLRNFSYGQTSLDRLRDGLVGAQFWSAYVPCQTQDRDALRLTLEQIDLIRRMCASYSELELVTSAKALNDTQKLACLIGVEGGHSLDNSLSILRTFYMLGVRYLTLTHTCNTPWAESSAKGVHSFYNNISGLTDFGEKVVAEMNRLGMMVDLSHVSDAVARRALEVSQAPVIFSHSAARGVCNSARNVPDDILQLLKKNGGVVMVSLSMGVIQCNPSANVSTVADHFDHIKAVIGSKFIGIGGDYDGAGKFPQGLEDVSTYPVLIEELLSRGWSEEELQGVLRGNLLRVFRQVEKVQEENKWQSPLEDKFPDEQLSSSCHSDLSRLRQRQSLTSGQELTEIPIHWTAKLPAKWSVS

binding to human DPEP3 transfected Cos-1 cells (human DPEP3): does not Bind
binding to Cos-7 cells on DPEP-1 expression, flow cytometry [1]: Enhanced the Binding
binding to Cos-7 cells on DPEP-1 expression, immunofluorescence microscopy [1]: Enhanced the Binding
binding to human DPEP2 transfected Cos-1 cells (human DPEP2): does not Bind
Substance: H-LSALTPSPSWLKYKAL [LSALT]
inhibition of human DPEP1 enzymatic activity [2]: do not inhibit membrane dipeptidase enzyme activity
neutrophil adhesion in the hepatic sinusoids [3]: inhibits neutrophil adhesion in the hepatic sinusoids
